The text below walks through data of patent US8716284B2, “Adamantyl diamide derivatives and uses of same” (H. Lundbeck A/S, priority 2008, dated 2014).

In the assay the target is T1, rat metabotropic glutamate receptor 5 (mGluR5) (Rattus norvegicus, UniProt P31424).
T1 construct: expressed in transfected cells; host or cells: HEK 293
T1 sequence (P31424 21-1171 isoform P31424-2 limits assumed): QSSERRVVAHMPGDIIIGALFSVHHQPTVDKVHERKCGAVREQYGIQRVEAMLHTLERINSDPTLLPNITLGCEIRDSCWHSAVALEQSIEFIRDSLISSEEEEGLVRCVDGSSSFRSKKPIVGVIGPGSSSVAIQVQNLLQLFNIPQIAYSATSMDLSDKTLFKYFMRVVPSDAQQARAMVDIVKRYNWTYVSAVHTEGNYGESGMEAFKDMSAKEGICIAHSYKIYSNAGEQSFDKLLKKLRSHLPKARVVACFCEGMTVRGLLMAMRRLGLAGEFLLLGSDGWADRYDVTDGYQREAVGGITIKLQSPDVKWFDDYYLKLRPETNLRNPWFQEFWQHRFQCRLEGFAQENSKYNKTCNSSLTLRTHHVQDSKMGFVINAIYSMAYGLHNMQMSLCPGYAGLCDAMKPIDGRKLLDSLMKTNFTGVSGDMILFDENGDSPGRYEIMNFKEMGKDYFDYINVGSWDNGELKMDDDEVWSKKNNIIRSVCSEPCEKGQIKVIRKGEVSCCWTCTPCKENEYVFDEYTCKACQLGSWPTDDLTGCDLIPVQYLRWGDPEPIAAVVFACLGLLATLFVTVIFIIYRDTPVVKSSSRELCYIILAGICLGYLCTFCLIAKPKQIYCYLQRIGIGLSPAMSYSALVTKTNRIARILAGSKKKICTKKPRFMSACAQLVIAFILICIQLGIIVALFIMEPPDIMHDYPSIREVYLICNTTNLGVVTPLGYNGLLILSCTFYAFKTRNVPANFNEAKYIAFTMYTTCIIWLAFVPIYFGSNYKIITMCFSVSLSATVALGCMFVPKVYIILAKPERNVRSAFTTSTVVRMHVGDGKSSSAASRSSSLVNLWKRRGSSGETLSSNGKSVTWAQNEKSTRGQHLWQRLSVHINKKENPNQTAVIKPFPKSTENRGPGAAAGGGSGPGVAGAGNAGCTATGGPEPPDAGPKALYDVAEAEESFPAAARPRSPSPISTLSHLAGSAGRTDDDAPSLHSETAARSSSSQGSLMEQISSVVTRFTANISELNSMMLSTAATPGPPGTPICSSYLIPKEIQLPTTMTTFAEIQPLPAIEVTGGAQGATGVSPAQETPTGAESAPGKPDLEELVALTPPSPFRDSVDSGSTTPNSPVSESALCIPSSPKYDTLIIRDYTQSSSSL
As to the kind of experiment: Calcium mobilization assay (FLIPR) for negative or positive allosteric activity, HEK 293 cells. The assay is classed as cell-based. The settings on record: HEK293, negative allosteric modulation, inhibition of EC80 glutamate response; read-out: FLIPR maximum inhibition. The method, boiled down: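 Peak Fluo-4 calcium signal over 3 min at room temperature, minus basal, fitted by Hill equation, in stable rat mGluR5 HEK 293 cells (HBSS/HEPES pH 7.4, BSA, probenecid). Inhibition scored against EC80 glutamate, potentiation against EC20 glutamate, glutamate given with compound.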
In general terms: Calcium assays in cells follow changes in intracellular calcium, usually with a dye or a luminescent sensor.
For the molecule `Cc1cc(C(=O)NC23CC4CC(CC(NC(=O)c5ccccn5)(C4)C2)C3)no1` [Example 73, Pyridine-2-carboxylic acid {3-[(5-methyl-isoxazole-3-carbonyl)-amino]-adamantan-1-yl}-amide], the Emax lay within 63 to 99%. The value for `O=C(NC12CC3CC(C1)CC(NC(=O)C1CCCCC1)(C3)C2)c1ccccn1` [Example 84, Pyridine-2-carboxylic acid [3-(cyclohexanecarbonyl-amino)-adamantan-1-yl]-amide] was 63 to 99%. The value for `O=C(NC12CC3CC(C1)CC(NC(=O)c1cccc(N4CCOCC4)n1)(C3)C2)c1ccccn1` [Example 197, 6-Morpholin-4-yl-pyridine-2-carboxylic acid {3-[(pyridine-2-carbonyl)-amino]-adamantan-1-yl}-amide] was 63 to 99%; that for `Cc1cccc(C(=O)NC23CC4CC(C2)CC(NC(=O)c2cccc(NCCC(N)=O)n2)(C4)C3)n1` [Example 240, 6-(2-Carbamoyl-ethylamino)-pyridine-2-carboxylic acid (3-[(6-methyl-pyridine-2-carbonyl)-amino]-adamantan-1-yl}-amide] was 63 to 99%; that for `O=C(NC12CC3CC(C1)CC(NC(=O)c1ccn4ccnc4c1)(C3)C2)c1cccc(F)c1` [Example 99, Imidazo[1,2-a]pyridine-7-carboxylic acid [3-(3-fluoro-benzoylamino)-adamantan-1-yl]-amide] was 63 to 99%.

Consider `O=C(NC12CC3CC(C1)CC(NC(=O)c1cnc4ccccc4n1)(C3)C2)c1cnc2ccccc2n1` [Example 13, N,N′-(1,3-adamantylene)bis(quinoxaline-2-carboxamide)], for which the Emax was in the range of 63 to 99%. The value for `Cc1ccnc(C(=O)NC23CC4CC(CC(NC(=O)c5cccc(F)c5)(C4)C2)C3)n1` [Example 182, 4-Methyl-pyrimidine-2-carboxylic acid [3-(3-fluoro-benzoylamino)-adamantan-1-yl]-amide] was 63 to 99%; that for `Cc1cccc(C(=O)NC23CC4CC(C2)CC(NC(=O)c2cccc(NCCCO)n2)(C4)C3)n1` [Example 210, 6-(3-Hydroxy-propylamino)-pyridine-2-carboxylic acid {3-[(6-methyl-pyridine-2-carbonyl)-amino]-adamantan-1-yl}-amide] was 63 to 99%.

Take `COCCCNc1cccc(C(=O)NC23CC4CC(CC(NC(=O)c5cccc(C)n5)(C4)C2)C3)n1` [Example 231, 6-(3-Methoxy-propylamino)-pyridine-2-carboxylic acid {3-[(6-methyl-pyridine-2-carbonyl)-amino]-adamantan-1-yl}-amide]: the Emax was in the range of 63 to 99%. The value for `COCCNc1cccc(C(=O)NC23CC4CC(CC(NC(=O)c5ccccn5)(C4)C2)C3)n1` [Example 224, 6-(2-Methoxy-ethylamino)-pyridine-2-carboxylic acid {3-[(pyridine-2-carbonyl)-amino]-adamantan-1-yl}-amide] was 63 to 99%. The result for `O=C(NC12CC3CC(C1)CC(NC(=O)c1cccc(N4CCC[C@@H]4CO)n1)(C3)C2)c1ccccn1` [Example 229, 6-((R)-2-Hydroxymethyl-pyrrolidin-1-yl)-pyridine-2-carboxylic acid {3-[(pyridine-2-carbonyl)-amino]-adamantan-1-yl}-amide] reads 63 to 99%. The value for `Cc1nccc(C(=O)NC23CC4CC(C2)CC(NC(=O)c2nccc(C(F)(F)F)n2)(C4)C3)n1` [Example 192, 4-Trifluoromethyl-pyrimidine-2-carboxylic acid {3-[(2-methyl-pyrimidine-4-carbonyl)-amino]-adamantan-1-yl}-amide] was 63 to 99%; that for `Cc1cccc(C(=O)NC23CC4CC(C2)CC(NC(=O)c2cccc(N5CCC[C@H]5CO)n2)(C4)C3)n1` [Example 237, 6-((S)-2-Hydroxymethyl-pyrrolidin-1-yl)-pyridine-2-carboxylic acid {3-[(6-methyl-pyridine-2-carbonyl)-amino]-adamantan-1-yl}-amide] was 63 to 99%. Consider `Cc1cccc(C(=O)NC23CC4CC(C2)CC(NC(=O)c2ncccn2)(C4)C3)n1` [Example 121, Pyrimidine-2-carboxylic acid {3-[(6-methyl-pyridine-2-carbonyl)-amino]-adamantan-1-yl}-amide], for which the Emax lay within 70 to 99%. The result for `Cc1cccc(C(=O)NC23CC4CC(CC(NC(=O)c5ccncn5)(C4)C2)C3)n1` [Example 35, Pyrimidine-4-carboxylic acid {3-[(6-methyl-pyridine-2-carbonyl)-amino]-adamantan-1-yl}-amide] reads 63 to 99%; that for `Cc1cccc(C(=O)NC23CC4CC(C2)CC(NC(=O)c2cccc(C(N)=O)n2)(C4)C3)n1` [Example 133, Pyridine-2,6-dicarboxylic acid 2-amide 6-({3-[(6-methyl-pyridine-2-carbonyl)-amino]-adamantan-1-yl}-amide)], 70 to 99%. The result for `O=C(NC12CC3CC(C1)CC(NC(=O)c1ccccn1)(C3)C2)c1cccc(F)c1` [Example 59, Pyridine-2-carboxylic acid [3-(3-fluoro-benzoylamino)-adamantan-1-yl]-amide] reads 63 to 99%; that for `Cc1cccc(C(=O)NC23CC4CC(C2)CC(NC(=O)c2cncc(C)n2)(C4)C3)n1` [Example 21, 6-Methyl-pyrazine-2-carboxylic acid {3-[(6-methyl-pyridine-2-carbonyl)-amino]-adamantan-1-yl}-amide], 63 to 99%; that for `CN(C)C1CCN(c2cccc(C(=O)NC34CC5CC(CC(NC(=O)c6ccccn6)(C5)C3)C4)n2)C1` (stereo not drawn) [Example 199, 6-(3-Dimethylamino-pyrrolidin-1-yl)-pyridine-2-carboxylic acid {3-[(pyridine-2-carbonyl)-amino]-adamantan-1-yl}-amide], 63 to 99%. The result for `CCOc1cccc(C(=O)NC23CC4CC(C2)CC(NC(=O)c2cncc(C)n2)(C4)C3)c1` [Example 147, 6-Methyl-pyrazine-2-carboxylic acid [3-(3-ethoxy-benzoylamino)-adamantan-1-yl]-amide] reads 70 to 99%; that for `CN1CCN(c2cccc(C(=O)NC34CC5CC(CC(NC(=O)c6cccc(F)c6)(C5)C3)C4)n2)CC1` [Example 216, 6-(4-Methyl-piperazin-1-yl)-pyridine-2-carboxylic acid [3-(3-fluoro-benzoylamino)-adamantan-1-yl]-amide], 63 to 99%. `Cc1cccc(C(=O)NC23CC4CC(C2)CC(NC(=O)c2cccc(N(C)CCO)n2)(C4)C3)n1` [Example 209, 6-[(2-Hydroxy-ethyl)-methyl-amino]-pyridine-2-carboxylic acid {3-[(6-methyl-pyridine-2-carbonyl)-amino]-adamantan-1-yl}-amide]: the Emax lay in the range of 63 to 99%. The result for `CN(C)CCCN(C)c1cccc(C(=O)NC23CC4CC(CC(NC(=O)c5cccc(F)c5)(C4)C2)C3)n1` [Example 243, 6-[(3-Dimethylamino-propyl)-methyl-amino]-pyridine-2-carboxylic acid [3-(3-fluoro-benzoylamino)-adamantan-1-yl]-amide] reads 63 to 99%; that for `Cc1cccc(C(=O)NC23CC4CC(C2)CC(NC(=O)c2nn(C)c5ccccc25)(C4)C3)n1` [Example 37, 1-Methyl-1H-indazole-3-carboxylic acid {3-[(6-methyl-pyridine-2-carbonyl)-amino]-adamantan-1-yl}-amide], 63 to 99%.
